Source: patent publication US12139492B2 (Endotarget Inc., priority 2021, dated 2024)
Like-named read-outs stand apart in the source and are kept apart here.

Key:
Assay type in all cases: cell-based
Mino cells = assay: Antiproliferative effect, MTS cell viability assay, Mino cells; settings: Mino mantle cell lymphoma cells, read-out: IC50 (anti-proliferation) Mino cells
Outline: (§1)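 Tested at six concentrations (0 to 10 μM in tenfold steps), 72 h; viability by MTS, A490.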

JeKo-1 cells = assay: Antiproliferative effect, MTS cell viability assay, JeKo-1 cells; settings: JeKo-1 mantle cell lymphoma cells, read-out: IC50 (anti-proliferation) JeKO-1 cells
Outline: as §1

BTK = BTK (Homo sapiens, UniProt Q06187); assay: BTK degradation, DC50 and Dmax of Table 1 (cell line not given); design: endogenous in cells; settings: for DC50: concentration giving 50% reduction of BTK expression level
Sequence of BTK (Q06187 whole entry): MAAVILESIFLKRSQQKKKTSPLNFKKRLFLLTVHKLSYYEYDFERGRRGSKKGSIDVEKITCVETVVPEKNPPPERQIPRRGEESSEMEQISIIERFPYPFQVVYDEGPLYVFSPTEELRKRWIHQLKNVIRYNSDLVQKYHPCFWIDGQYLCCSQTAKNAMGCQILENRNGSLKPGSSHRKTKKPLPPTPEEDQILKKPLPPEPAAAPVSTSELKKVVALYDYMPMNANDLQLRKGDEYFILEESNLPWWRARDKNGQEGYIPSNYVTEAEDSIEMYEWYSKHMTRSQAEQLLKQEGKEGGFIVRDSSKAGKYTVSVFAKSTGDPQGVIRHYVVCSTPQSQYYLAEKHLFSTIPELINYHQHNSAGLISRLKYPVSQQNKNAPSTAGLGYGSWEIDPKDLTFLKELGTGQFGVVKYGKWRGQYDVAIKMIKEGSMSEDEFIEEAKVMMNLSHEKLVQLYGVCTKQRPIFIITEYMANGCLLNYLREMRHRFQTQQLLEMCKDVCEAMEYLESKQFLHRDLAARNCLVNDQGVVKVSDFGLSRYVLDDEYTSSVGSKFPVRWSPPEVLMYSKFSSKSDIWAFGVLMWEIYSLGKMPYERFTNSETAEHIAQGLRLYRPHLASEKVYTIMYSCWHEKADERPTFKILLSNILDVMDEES

Dmax (BTK) [%]	DC50 (BTK) [nM]	Molecule	IC50 (Mino cells; Homo sapiens, MINO) [µM]	IC50 (JeKo-1 cells; Homo sapiens) [µM]	IC50 (Mino cells) [µM]	IC50 (JeKo-1 cells) [µM]	Dmax (BTK degradation) (BTK)
> 75	> 50	Nc1ncnc2c1c(-c1ccc(Oc3ccccc3)cc1)nn2[C@@H]1CCCN(C(=O)N2CCN(CCCN3CCN(c4ccc5c(c4)CN(C4CCC(=O)NC4=O)C5=O)CC3)CC2)C1 (stereo partly drawn) [Compound 108, 3-(5-(4-(3-(4-((R)-3-(4-amino-3-(4-phenoxyphenyl)-1H-pyrazolo[3,4-d]pyrimidin-1-yl)piperidine-1-carbonyl)piperazin-1-yl)propyl)piperazin-1-yl)-1-oxoisoindolin-2-yl)piperidine-2,6-dione]	1 to 10	1 to 10			
> 90	10 to 50	Nc1ncnc2c1c(-c1ccc(Oc3ccccc3)cc1)nn2[C@@H]1CCCN(C2CCN(C(=O)N3CCC(CC4CCN(c5ccc6c(c5)C(=O)N(C5CCC(=O)NC5=O)C6=O)CC4)CC3)CC2)C1 (stereo partly drawn) [Compound 167, 5-(4-((1-((R)-3-(4-amino-3-(4-phenoxyphenyl)-1H-pyrazolo[3,4-d]pyrimidin-1-yl)-[1,4′-bipiperidine]-1′-carbonyl)piperidin-4-yl)methyl)piperidin-1-yl)-2-(2,6-dioxopiperidin-3-yl)isoindoline-1,3-dione]	1 to 10	1 to 10			
> 90	10 to 50	Nc1ncnc2c1c(-c1ccc(Oc3ccccc3)cc1)nn2C1CCN(C(=O)N2CCN(CC3CCN(c4ccc5c(c4)CN(C4CCC(=O)NC4=O)C5=O)CC3)CC2)CC1 (stereo not shown) [Compound 88, 3-(5-(4-((4-(4-(4-amino-3-(4-phenoxyphenyl)-1H-pyrazolo[3,4-d]pyrimidin-1-yl)piperidine-1-carbonyl)piperazin-1-yl)methyl)piperidin-1-yl)-1-oxoisoindolin-2-yl)piperidine-2,6-dione]	< 1	< 1			
> 90	> 50	Nc1ncnc2c1c(-c1ccc(Oc3ccccc3)cc1)nn2[C@@H]1CCCN(C2CCN(C(=O)N3CCN(CCN4CCN(c5ccc6c(c5)CN(C5CCC(=O)NC5=O)C6=O)CC4)CC3)CC2)C1 (stereo partly drawn) [Compound 176, 3-(5-(4-(2-(4-((R)-3-(4-amino-3-(4-phenoxyphenyl)-1H-pyrazolo[3,4-d]pyrimidin-1-yl)-[1,4′-bipiperidine]-1′-carbonyl)piperazin-1-yl)ethyl)piperazin-1-yl)-1-oxoisoindolin-2-yl)piperidine-2,6-dione]	1 to 10	1 to 10			
> 75	> 50	Nc1ncnc2c1c(-c1ccc(Oc3ccccc3)cc1)nn2[C@@H]1CCCN(C2CCN(CCC3CCN(c4ccc5c(c4)C(=O)N(C4CCC(=O)NC4=O)C5=O)CC3)CC2)C1 (stereo partly drawn) [Compound 145, 5-(4-(2-((R)-3-(4-amino-3-(4-phenoxyphenyl)-1H-pyrazolo[3,4-d]pyrimidin-1-yl)-[1,4′-bipiperidin]-1′-yl)ethyl)piperidin-1-yl)-2-(2,6-dioxopiperidin-3-yl)isoindoline-1,3-dione]	> 10	> 10			
> 90	10 to 50	Nc1ncnc2c1c(-c1ccc(Oc3ccccc3)cc1)nn2[C@@H]1CCCN(C2CCN(CC3CCN(c4ccc5c(c4)C(=O)N(C4CCC(=O)NC4=O)C5=O)CC3)CC2)C1 (stereo partly drawn) [Compound 143, 5-(4-(((R)-3-(4-amino-3-(4-phenoxyphenyl)-1H-pyrazolo[3,4-d]pyrimidin-1-yl)-[1,4′-bipiperidin]-1′-yl)methyl)piperidin-1-yl)-2-(2,6-dioxopiperidin-3-yl)isoindoline-1,3-dione]	> 10	> 10			
> 90	10 to 50	Nc1ncnc2c1c(-c1ccc(Oc3ccccc3)cc1)nn2[C@@H]1CCCN(C2CCN(C(=O)N3CCC(N4CCC(c5ccc6c(c5)CN(C5CCC(=O)NC5=O)C6=O)CC4)CC3)CC2)C1 (stereo partly drawn) [Compound 166, 3-(5-(1′-((R)-3-(4-amino-3-(4-phenoxyphenyl)-1H-pyrazolo[3,4-d]pyrimidin-1-yl)-[1,4′-bipiperidine]-1′-carbonyl)-[1,4′-bipiperidin]-4-yl)-1-oxoisoindolin-2-yl)piperidine-2,6-dione]	1 to 10	> 10			
> 75	> 50	Nc1ncnc2c1c(-c1ccc(Oc3ccccc3)cc1)nn2[C@@H]1CCCN(C(=O)N2CCN(CCCN3CCN(c4ccc5c(c4)C(=O)N(C4CCC(=O)NC4=O)C5=O)CC3)CC2)C1 (stereo partly drawn) [Compound 107, 5-(4-(3-(4-((R)-3-(4-amino-3-(4-phenoxyphenyl)-1H-pyrazolo[3,4-d]pyrimidin-1-yl)piperidine-1-carbonyl)piperazin-1-yl)propyl)piperazin-1-yl)-2-(2,6-dioxopiperidin-3-yl)isoindoline-1,3-dione]	1 to 10	> 10			
> 50	> 50	Nc1ncnc2c1c(-c1ccc(Oc3ccccc3)cc1)nn2C1CCN(C(=O)N2CCC(c3ccc4c(c3)CN(C3CCC(=O)NC3=O)C4=O)CC2)CC1 (stereo not shown) [Compound 78, 3-(5-(1-(4-(4-amino-3-(4-phenoxyphenyl)-1H-pyrazolo[3,4-d]pyrimidin-1-yl)piperidine-1-carbonyl)piperidin-4-yl)-1-oxoisoindolin-2-yl)piperidine-2,6-dione]	> 10	> 10			
> 90	10 to 50	Nc1ncnc2c1c(-c1ccc(Oc3ccccc3)cc1)nn2C1CCN(C(=O)N2CCC(CCC3CCN(c4ccc5c(c4)C(=O)N(C4CCC(=O)NC4=O)C5=O)CC3)CC2)CC1 (stereo not shown) [Compound 101, 5-(4-(2-(1-(4-(4-amino-3-(4-phenoxyphenyl)-1H-pyrazolo[3,4-d]pyrimidin-1-yl)piperidine-1-carbonyl)piperidin-4-yl)ethyl)piperidin-1-yl)-2-(2,6-dioxopiperidin-3-yl)isoindoline-1,3-dione]	> 10	> 10			
> 75	10 to 50	Nc1ncnc2c1c(-c1ccc(Oc3ccccc3)cc1)nn2[C@@H]1CCCN(C2CCN(C(=O)N3CCC(N4CCC(c5ccc6c(c5)C(=O)N(C5CCC(=O)NC5=O)C6=O)CC4)CC3)CC2)C1 (stereo partly drawn) [Compound 165, 5-(1′-((R)-3-(4-amino-3-(4-phenoxyphenyl)-1H-pyrazolo[3,4-d]pyrimidin-1-yl)-[1,4′-bipiperidine]-1′-carbonyl)-[1,4′-bipiperidin]-4-yl)-2-(2,6-dioxopiperidin-3-yl)isoindoline-1,3-dione]	1 to 10	> 10			
> 75	> 50	Nc1ncnc2c1c(-c1ccc(Oc3ccccc3)cc1)nn2C1CCN(C(=O)N2CCC(N3CCC(c4ccc5c(c4)C(=O)N(C4CCC(=O)NC4=O)C5=O)CC3)CC2)CC1 (stereo not shown) [Compound 83, 5-(1′-(4-(4-amino-3-(4-phenoxyphenyl)-1H-pyrazolo[3,4-d]pyrimidin-1-yl)piperidine-1-carbonyl)-[1,4′-bipiperidin]-4-yl)-2-(2,6-dioxopiperidin-3-yl)isoindoline-1,3-dione]	> 10	> 10			

Molecule	Dmax (BTK) [%]	DC50 (BTK) [nM]	IC50 (Mino cells; Homo sapiens, MINO) [µM]	IC50 (JeKo-1 cells; Homo sapiens) [µM]	IC50 (Mino cells) [µM]	IC50 (JeKo-1 cells) [µM]	Dmax (BTK degradation) (BTK)
3-(5-(4-(2-(2-(3-(4-amino-3-(4- phenoxyphenyl)-1H-pyrazolo[3,4- d]pyrimidin-1-yl)piperidin-1- yl)ethoxy)ethyl)piperidin-1-yl)-1- oxoisindolin-2-yl)piperidine-2,6- dione [Compound 24]		10 to 50			1 to 10	1 to 10	A (A >90%)
